{"source": "patent US8916526B2", "about": "“Flavanone derivative” (National University Corporation Okayama University, priority 2009, dated 2014)", "key": {"[1]": {"test_system": "Vancomycin-resistant enterococci FN-1", "assay": "In vitro infectivity assay (MIC), Exp. Ex. 2-1", "format": "cell-based", "details": "Enterococcus, VRE; Gram-positive; microdilution, MIC after 24 h; read-out: MIC VRE FN-1", "outline": "(§1)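 CLSI broth dilution; Mueller-Hinton + 0.85% NaCl; inoculum ~10^5 CUF/[…]; 35° C, 24 h; MIC read, n=3.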"}, "[2]": {"test_system": "Vancomycin-resistant enterococci NCTC 12201", "assay": "In vitro infectivity assay (MIC), Exp. Ex. 2-1", "format": "cell-based", "details": "Enterococcus, NCTC 12201 / VRE; Gram-positive; microdilution, MIC after 24 h; read-out: MIC VRE NCTC 12201", "outline": "as §1"}, "[3]": {"test_system": "Vancomycin intermediate-resistant Staphylococcus aureus Mu50", "assay": "In vitro infectivity assay (MIC), Exp. Ex. 2-1", "format": "cell-based", "details": "Staphylococcus aureus, VISA; Gram-positive; microdilution, MIC after 24 h; read-out: MIC VISA Mu50", "outline": "as §1"}, "E. coli DNA gyrase": {"target": "T1, E. coli DNA gyrase (Escherichia coli, UniProt P0AES4+P0AES6)", "T1 construct": "purchased John Innes Enterprises #K0001", "T1 sequence (P0AES4 whole entry, one chain of several)": "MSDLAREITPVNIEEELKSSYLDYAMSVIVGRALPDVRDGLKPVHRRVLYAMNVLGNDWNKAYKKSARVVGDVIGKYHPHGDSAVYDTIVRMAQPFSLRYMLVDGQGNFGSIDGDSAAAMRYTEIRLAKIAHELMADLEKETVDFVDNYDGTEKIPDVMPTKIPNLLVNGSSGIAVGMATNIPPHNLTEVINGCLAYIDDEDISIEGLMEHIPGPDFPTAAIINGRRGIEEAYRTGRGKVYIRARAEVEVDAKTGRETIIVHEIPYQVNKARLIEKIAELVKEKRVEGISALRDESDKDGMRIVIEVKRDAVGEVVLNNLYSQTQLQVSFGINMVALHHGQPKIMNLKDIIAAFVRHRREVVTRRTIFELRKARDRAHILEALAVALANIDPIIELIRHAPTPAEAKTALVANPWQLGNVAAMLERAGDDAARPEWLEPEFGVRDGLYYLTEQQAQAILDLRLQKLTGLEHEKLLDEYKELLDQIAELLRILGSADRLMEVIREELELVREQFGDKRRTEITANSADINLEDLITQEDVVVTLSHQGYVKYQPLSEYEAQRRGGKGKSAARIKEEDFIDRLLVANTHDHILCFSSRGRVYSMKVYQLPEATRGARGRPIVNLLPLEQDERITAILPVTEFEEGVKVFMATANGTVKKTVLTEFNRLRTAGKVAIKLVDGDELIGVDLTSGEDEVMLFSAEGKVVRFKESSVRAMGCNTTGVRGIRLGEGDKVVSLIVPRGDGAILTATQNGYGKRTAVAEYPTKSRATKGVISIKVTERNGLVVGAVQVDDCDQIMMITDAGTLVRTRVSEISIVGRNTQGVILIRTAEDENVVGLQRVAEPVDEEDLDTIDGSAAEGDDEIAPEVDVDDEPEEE", "assay": "DNA gyrase inhibition (supercoiling kit), Exp. Ex. 2-2", "format": "biochemical", "outline": "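IC50 derived from gel electrophoresis separating supercoiled from relaxed DNA. Reactions ran 30 minutes at 37° C with 1 U gyrase, […] relaxed pBR322, 1 mM ATP and 4 mM MgCl2 in Tris-HCl buffer (pH 7.5), then stopped with EDTA-containing solution.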"}, "[4]": {"target": "T2, Escherichia coli Topoisomerase IV (Escherichia coli, UniProt P0AFI2+P20083)", "T2 construct": "purchased John Innes Enterprises", "T2 sequence (P20083 whole entry)": "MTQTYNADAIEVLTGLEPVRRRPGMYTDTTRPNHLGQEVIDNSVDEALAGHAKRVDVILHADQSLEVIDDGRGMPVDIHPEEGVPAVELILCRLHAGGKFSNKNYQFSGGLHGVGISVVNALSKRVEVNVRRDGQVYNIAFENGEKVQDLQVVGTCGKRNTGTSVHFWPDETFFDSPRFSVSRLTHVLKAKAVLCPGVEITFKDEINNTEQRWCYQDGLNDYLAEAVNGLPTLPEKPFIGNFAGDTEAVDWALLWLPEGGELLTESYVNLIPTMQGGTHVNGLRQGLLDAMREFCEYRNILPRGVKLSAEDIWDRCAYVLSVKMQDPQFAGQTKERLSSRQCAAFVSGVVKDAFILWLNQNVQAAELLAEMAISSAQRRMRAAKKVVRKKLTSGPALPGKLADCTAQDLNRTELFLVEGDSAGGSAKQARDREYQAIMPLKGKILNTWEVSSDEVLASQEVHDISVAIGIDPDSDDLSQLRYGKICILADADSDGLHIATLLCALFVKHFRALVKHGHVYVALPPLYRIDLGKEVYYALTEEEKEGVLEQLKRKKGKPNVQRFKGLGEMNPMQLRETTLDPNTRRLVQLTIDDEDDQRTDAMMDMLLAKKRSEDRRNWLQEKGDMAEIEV", "T2 sequence (P0AFI2 whole entry)": "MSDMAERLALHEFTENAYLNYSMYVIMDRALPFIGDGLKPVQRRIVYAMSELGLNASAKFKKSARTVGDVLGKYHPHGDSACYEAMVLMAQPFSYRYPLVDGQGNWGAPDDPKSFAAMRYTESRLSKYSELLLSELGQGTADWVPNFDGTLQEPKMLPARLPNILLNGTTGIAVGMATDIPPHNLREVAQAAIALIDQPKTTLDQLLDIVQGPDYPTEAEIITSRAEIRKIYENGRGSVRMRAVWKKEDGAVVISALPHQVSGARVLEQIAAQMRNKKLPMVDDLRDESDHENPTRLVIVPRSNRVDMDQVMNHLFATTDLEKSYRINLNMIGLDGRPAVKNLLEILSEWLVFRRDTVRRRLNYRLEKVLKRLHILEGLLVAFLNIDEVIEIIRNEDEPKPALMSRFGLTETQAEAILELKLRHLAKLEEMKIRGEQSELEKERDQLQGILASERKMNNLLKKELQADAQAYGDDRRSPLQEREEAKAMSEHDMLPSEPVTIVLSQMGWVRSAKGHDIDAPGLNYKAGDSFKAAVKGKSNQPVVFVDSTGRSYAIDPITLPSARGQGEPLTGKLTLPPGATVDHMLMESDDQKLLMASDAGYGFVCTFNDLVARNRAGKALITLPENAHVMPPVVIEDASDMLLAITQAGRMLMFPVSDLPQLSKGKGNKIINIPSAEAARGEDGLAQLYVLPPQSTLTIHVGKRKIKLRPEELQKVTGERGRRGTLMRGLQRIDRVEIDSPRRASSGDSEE", "assay": "Topoisomerase IV inhibition (decatenation kit), Exp. Ex. 2-3", "format": "biochemical", "details": "decatenation of kDNA, 37° C., 30 minutes; read-out: IC50 (E. coli topoisomerase IV inhibitions)", "outline": "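Decatenation of 200 ng kinetoplast DNA by 1 unit enzyme, 30 min at 37 °C. S. aureus: 50 mM Tris-HCl pH 7.5, 350 mM potassium glutamate, 1.5 mM ATP; E. coli: 50 mM HEPES-KOH pH 7.6, 100 mM potassium glutamate, 1 mM ATP. Products resolved on 1.0% agarose in TAE.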"}}}
{"smiles": "O=c1c(O)c(-c2ccc(O)c(O)c2)oc2cc(O)cc(O)c12", "note": "[Quercetin, quercetin, reference compound]", "values": [{"measurement": "MIC", "setting": "[1]", "value": "> 128", "unit": "µg/mL"}, {"measurement": "MIC", "setting": "[2]", "value": "> 128", "unit": "µg/mL"}, {"measurement": "MIC", "setting": "[3]", "value": "> 128", "unit": "µg/mL"}, {"measurement": "IC50", "setting": "E. coli DNA gyrase", "value": 0.14, "unit": "µM"}, {"measurement": "IC50", "setting": "[4]", "value": 4.42, "unit": "µM"}]}
